From ChEMBL document CHEMBL2074341, “Biliary excretion of flavopiridol and its glucuronides in the isolated perfused rat liver: role of multidrug resistance protein 2 (Mrp2)” (Life Sci, 2003)

Target: ATP-binding cassette sub-family C member 2 (Rattus norvegicus, UniProt Q63120)
Test: TP_TRANSPORTER: transport activity, in vitro, Wistar vs TR-
Format: functional

Chain of ATP-binding cassette sub-family C member 2 (Q63120 whole entry): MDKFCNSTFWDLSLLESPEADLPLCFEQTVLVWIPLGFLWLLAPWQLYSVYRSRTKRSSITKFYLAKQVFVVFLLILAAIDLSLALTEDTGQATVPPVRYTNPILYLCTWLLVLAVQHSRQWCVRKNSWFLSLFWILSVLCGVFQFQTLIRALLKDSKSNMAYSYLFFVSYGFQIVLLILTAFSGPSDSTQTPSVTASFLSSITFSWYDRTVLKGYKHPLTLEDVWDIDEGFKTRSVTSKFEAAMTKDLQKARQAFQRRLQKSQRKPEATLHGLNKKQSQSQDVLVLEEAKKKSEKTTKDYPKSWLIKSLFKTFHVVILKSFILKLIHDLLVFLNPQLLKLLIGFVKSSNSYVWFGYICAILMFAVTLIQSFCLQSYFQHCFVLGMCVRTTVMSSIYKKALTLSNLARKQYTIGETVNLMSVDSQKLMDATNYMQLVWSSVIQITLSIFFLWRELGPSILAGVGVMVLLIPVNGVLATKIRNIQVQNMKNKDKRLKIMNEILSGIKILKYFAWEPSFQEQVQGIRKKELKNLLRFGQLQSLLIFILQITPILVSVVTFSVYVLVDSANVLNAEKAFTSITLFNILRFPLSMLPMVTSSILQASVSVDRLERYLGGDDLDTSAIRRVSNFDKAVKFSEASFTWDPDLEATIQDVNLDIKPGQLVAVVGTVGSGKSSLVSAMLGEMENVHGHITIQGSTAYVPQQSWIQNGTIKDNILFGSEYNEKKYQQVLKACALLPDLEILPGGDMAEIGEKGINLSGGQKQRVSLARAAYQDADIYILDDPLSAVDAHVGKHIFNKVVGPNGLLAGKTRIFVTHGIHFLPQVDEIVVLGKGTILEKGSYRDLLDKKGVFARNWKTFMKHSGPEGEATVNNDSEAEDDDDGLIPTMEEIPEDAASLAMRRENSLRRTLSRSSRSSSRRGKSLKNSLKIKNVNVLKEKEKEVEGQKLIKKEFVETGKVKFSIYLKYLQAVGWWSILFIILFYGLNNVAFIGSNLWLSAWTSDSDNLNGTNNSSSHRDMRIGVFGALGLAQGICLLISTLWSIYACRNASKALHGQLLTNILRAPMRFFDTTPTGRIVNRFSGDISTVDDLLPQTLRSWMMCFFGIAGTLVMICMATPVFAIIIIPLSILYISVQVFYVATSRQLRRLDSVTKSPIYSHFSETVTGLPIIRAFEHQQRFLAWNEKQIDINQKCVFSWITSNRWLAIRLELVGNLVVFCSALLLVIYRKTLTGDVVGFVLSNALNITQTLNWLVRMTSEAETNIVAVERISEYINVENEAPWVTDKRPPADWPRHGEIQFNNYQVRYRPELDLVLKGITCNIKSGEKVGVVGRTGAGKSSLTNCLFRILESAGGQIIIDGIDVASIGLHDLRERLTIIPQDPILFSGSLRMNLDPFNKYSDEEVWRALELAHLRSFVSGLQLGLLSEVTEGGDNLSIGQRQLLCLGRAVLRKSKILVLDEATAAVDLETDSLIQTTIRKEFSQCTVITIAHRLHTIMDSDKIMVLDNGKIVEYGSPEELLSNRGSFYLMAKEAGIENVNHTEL

| Compound | Activity |
| --- | --- |
| CN1CC[C@H](c2c(O)cc(O[C@@H]3O[C@H](C(=O)O)[C@@H](O)[C@H](O)[C@H]3O)c3c(=O)cc(-c4ccccc4Cl)oc23)[C@H](O)C1 | substrate [] |
| CN1CC[C@H](c2c(O[C@@H]3O[C@H](C(=O)O)[C@@H](O)[C@H](O)[C@H]3O)cc(O)c3c(=O)cc(-c4ccccc4Cl)oc23)[C@H](O)C1 | substrate [] |
